# Source: patent US6468782B1, “Methods of preserving prokaryotic cells and compositions obtained thereby” (priority 1996, dated 2002)
# Read-outs that look alike come from different tables or passages of the source.
# How the values were obtained:
# E. coli 9484 = assay: Viable cell recovery (plate assay, CFU) of trehalose-induced E. coli Q-T4 dried with different excipients and stored at 37° C.; type: cell-based
# Description: Viability was determined immediately after completion and at various times during storage at 37° C. using a plate assay. For the plate assay, serial 10-fold dilutions of cells were set up by using minimal medium minus a carbon source as a sterile diluent.
# Thirty μl of the cell suspension from the sixth dilution tube was added to each of 3 LB (Luria-Bertuni) plates, using a sterile glass spreader to spread the culture over the entire surface of the plate. The plates were incubated overnight at 37° C., and the colonies counted.
# E. coli strain 9894 was inoculated in 100 ml batch cultures of minimal medium related to M9 but with high (0.5M) salt content as described in Example 2. Cells were grown for 22 hours at 37° C. in a shaking incubator (early stationary phase). Samples of cultures were removed for trehalose determination (3×1 ml) and protein estimation by the Bradford assay (3×10 ml; Bio-Rad). Trehalose concentration was expressed as μmol (mg protein)^−1.
# Two 30 ml aliquots from each flask were harvested by centrifugation at 10,000 rpm for 10 minutes. Cell pellets were resuspended in 8 ml of 25-45% sugar, 0.1% CMC (sodium carboxymethyl cellulose; Blanose 7HF; Aqualon). The suspensions were then pooled to a total volume of 16 ml with a typical cell density of 4-8×10^9 CFU/ml and 300 μl aliquots dispensed into 3 ml pharmaceutical vials.
# Bacteria were dried under vacuum without freezing using the following protocol: vacuum, 30 mT; initial shelf temperature 40° C. for 16 hours, followed by ramping to 80° C. at a rate of 2.5° C./min in increments of 2° C. with a holding time of 12 minutes per increment. Foaming occurred between 60-120 minutes of initial drying.
# Viability was determined immediately before and after the completion of the drying procedure and at various times during storage at 37° C. using a plate assay as described in Example 2. The residual moisture content and the glass transition temperature were also determined.
# E. coli = assay: Intracellular trehalose production in E. coli under osmotic shock with different salts; type: cell-based
# Description: E. coli NCIMB strain 9484 was cultured in Evans medium (pH 7.0; Table 1) containing one of a variety of agents for increasing osmotic pressure. After overnight incubation at 37° C. in initial Evans medium, a 4 ml culture of E. coli grown in Evans medium under nitrogen limitation was used to inoculate a 200 ml culture of Evans medium osmotic shock.
# Intracellular trehalose concentration was measured as described below at various times after the initiation of osmotic shock.
# Intracellular concentration of trehalose was determined using high pressure liquid chromatography (HPLC) as follows. Trehalose standards were prepared by first making 10 mM trehalose in 70% ethanol, followed by 10-fold serial dilution from 10 mM to 10 nM using 70% ethanol as diluent. […]
# Cell samples were prepared for analysis by disrupting the cell wall by sonication (any other method such as mortar and pestle, osmotic lysis, beads can be used) coupled with the preferential solubilization of trehalose in 70% ethanol, followed by removing triglycerides by chloroform extraction. […] The pellet volume was determined by measuring the relative increase in the initial volume following resuspension of the cells. […]
# Quantitation of trehalose was achieved by HPLC (Beckman Instruments), using a Dionex CarboPac PA 100 analytical column, with a Dionex ED40 pulsed amperometric electrochemical detector. […]
compound,measurement,setting,value
"OC[C@@H](O)[C@@H](O[C@@H]1O[C@H](CO)[C@H](O)[C@H](O)[C@H]1O)[C@H](O)[C@@H](O)CO [Lactitol, 4-O-β-D-galactopyranosyl-D-glucitol]","% Viable Cell Recovery after storage at 37° C., Day 0","E. coli 9484; E. coli, 0 day",42%
same,"% Viable Cell Recovery after storage at 37° C., Week 3","E. coli 9484; E. coli, 3 weeks",36%
same,"% Viable Cell Recovery after storage at 37° C., Week 6","E. coli 9484; E. coli, 6 weeks",34%
"OC[C@H]1O[C@H](O[C@H]2O[C@H](CO)[C@@H](O)[C@H](O)[C@H]2O)[C@H](O)[C@@H](O)[C@@H]1O [Trehalose, α-D-glucopyranosyl-α-D-glucopyranoside]","% Viable Cell Recovery after storage at 37° C., Week 3","E. coli 9484; 3 weeks storage at 37° C., 25-45% sugar, 0.1% CMC",52%
same,"% Viable Cell Recovery after storage at 37° C., Week 6","E. coli 9484; 6 weeks storage at 37° C., 25-45% sugar, 0.1% CMC",45%
same,"% Viable Cell Recovery after storage at 37° C., Day 0","E. coli 9484; immediately after completion of Q-T4 drying, 25-45% sugar, 0.1% CMC",36%
N.N.O=S(=O)(O)O [ammonium sulfate],"amount of intracellular trehalose concentration stimulated, relative to NaCl, CaCl2 or KCl",E. coli,about half
Palatinit,"% Viable Cell Recovery after storage at 37° C., Day 0",E. coli 9484,49%
same,"% Viable Cell Recovery after storage at 37° C., Week 3",E. coli 9484,49%
same,"% Viable Cell Recovery after storage at 37° C., Week 6",E. coli 9484,51%
